Several values for one entry are separate records, joined by “and”; a condition that tells them apart may be missing. Identical values can stand only once. Like-named read-outs stand apart in the source and are kept apart here. Values belong to the molecule of their own block, whether it stands above or below them.
How the values were obtained:
CYP2E1 [1] = biological target: T1, CYP2E1 (Rattus norvegicus, UniProt P05182)
CYP1A2 = biological target: T2, CYP1A2 (Rattus norvegicus, UniProt P04799); experiment: In vitro cocktail CYP450 activity assay in rat liver microsomes, CYP1A2 (phenacetin probe)
T2 sequence (P04799 1-513): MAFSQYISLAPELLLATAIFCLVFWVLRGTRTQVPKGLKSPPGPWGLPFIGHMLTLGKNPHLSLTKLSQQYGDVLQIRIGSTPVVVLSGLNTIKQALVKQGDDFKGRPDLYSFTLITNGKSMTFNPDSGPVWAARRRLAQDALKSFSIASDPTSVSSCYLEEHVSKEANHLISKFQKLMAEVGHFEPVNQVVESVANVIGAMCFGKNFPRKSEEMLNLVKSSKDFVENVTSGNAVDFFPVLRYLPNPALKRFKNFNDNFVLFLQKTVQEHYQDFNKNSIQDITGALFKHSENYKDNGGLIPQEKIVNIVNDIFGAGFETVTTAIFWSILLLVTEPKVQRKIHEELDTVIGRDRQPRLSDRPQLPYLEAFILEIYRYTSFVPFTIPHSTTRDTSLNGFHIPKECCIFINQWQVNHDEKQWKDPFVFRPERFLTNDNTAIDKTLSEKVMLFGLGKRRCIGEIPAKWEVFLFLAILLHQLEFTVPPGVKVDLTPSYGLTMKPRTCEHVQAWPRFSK
Method: (§1) (OHBUP-[D6]) and 5 nM 4′-hydroxydiclofenac-[^13C6] (OHDIC-[^13C6]) as internal standards (ISs). […]
(§2) standard addition experiments. Each group included four concentration levels. For the PK […]
(§3) The probe compounds, viz. […]
(§4) chosen after incubating all the recruited substrates. In order to assure the linear relationship […]
(§5) The incubation system was also optimized in terms of substrate concentrations. The substrates concentrations of […]

CYP2C9 = experiment: in vitro
Method: as §1, §2, §3, §4, §5

CYP3A4 = experiment: in vitro
Method: as §1, §2, §3, §4, §5

CYP2D6 = experiment: in vitro
Method: as §1, §2, §3, §4, §5

CYP2B6 = experiment: in vitro; conditions: for IC50 at 15 min: Sprague-Dawley, rat, pooled rat liver microsomes, pH 7.4, probe bupropion (90 µM, in seven-probe cocktail), IC50 CYP2B6, single components
Method: as §1, §2, §3, §4, §5

CYP2C19 = experiment: in vitro
Method: as §1, §2, §3, §4, §5

CYP2E1 [2] = biological target: T1, CYP2E1; conditions: IC50 CYP2E1, single components; RLM 0.2 mg/mL, 15 min, triplicate, mean ± SD
[3] = IC50 CYP1A2, single components, RLM 0.2 mg/mL, 15 min, triplicate, mean ± SD
[4] = RLM 0.2 mg/mL, 15 min, triplicate, mean ± SD
[5] = read-out: IC50 CYP2B6, single components, RLM 0.2 mg/mL, 15 min, triplicate, mean ± SD
[6] = read-out: IC50 CYP2C9, single components, RLM 0.2 mg/mL, 15 min, triplicate, mean ± SD
[7] = read-out: IC50 CYP3A4, single components, RLM 0.2 mg/mL, 15 min, triplicate, mean ± SD
[8] = read-out: IC50 CYP2D6, single components, RLM 0.2 mg/mL, 15 min, triplicate, mean ± SD
[9] = read-out: IC50 CYP2C19, single components, RLM 0.2 mg/mL, 15 min, triplicate, mean ± SD
[10] = Sprague-Dawley, rat, microsomes, pH 7.4
[11] = read-out: IC50 CYP2E1, single components, RLM 0.2 mg/mL, 15 min, triplicate, mean ± SD
[12] = read-out: IC50 CYP1A2, single components, RLM 0.2 mg/mL, 15 min, triplicate, mean ± SD

T1 sequence (P05182 whole entry): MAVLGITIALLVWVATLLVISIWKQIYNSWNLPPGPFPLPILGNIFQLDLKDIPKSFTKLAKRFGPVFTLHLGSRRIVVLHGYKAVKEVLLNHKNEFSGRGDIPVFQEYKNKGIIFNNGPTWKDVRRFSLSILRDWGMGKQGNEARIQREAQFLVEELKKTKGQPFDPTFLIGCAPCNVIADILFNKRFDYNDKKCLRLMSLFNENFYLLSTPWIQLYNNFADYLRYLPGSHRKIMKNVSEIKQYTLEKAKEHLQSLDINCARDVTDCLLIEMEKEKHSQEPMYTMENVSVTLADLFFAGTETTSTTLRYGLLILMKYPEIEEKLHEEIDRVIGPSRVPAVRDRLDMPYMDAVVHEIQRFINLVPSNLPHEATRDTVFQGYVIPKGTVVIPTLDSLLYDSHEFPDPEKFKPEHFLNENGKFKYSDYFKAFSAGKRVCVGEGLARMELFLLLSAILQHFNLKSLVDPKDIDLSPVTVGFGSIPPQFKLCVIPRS

Molecule: O=c1c(O)c(-c2ccc(O)cc2)oc2cc(O)c(O)c(O)c12 [A18, 6-hydroxykaempferol]
- IC50 (CYP1A2; [3]): < 5 µM and 0.12 µM
- IC50 at 15 min (CYP2B6; [4]): < 5 µM
- IC50 (CYP2B6; [5]): 4.42 ± 1.31 µM
- IC50 (CYP2E1 [2]): < 5 µM and 4.27 µM

Molecule: kaempferol-3-O-rutinoside [A11]
- IC50 (CYP2C9; [6]): 24.9 ± 4.96 µM
- IC50 (CYP3A4; [7]): 16.2 ± 4.3 µM
- IC50 (CYP2D6; [8]): 64.5 ± 7.71 µM
- IC50 (CYP2B6; [5]): 17.3 ± 0.96 µM
- IC50 (CYP2C19; [9]): > 200 µM

Molecule: O=c1c(O[C@@H]2O[C@H](CO)[C@@H](O)[C@H](O)[C@H]2O[C@@H]2O[C@H](CO)[C@@H](O)[C@H](O)[C@H]2O)c(-c2ccc(O)cc2)oc2cc(O)cc(O)c12 [A14, kaempferol-3-O-sophoroside]
- IC50 (CYP2E1 [1]; [11]): > 200 µM
- IC50 (CYP1A2; [12]): > 200 µM
- IC50 (CYP2C9; [6]): > 200 µM
- IC50 (CYP3A4; [7]): > 200 µM
- IC50 (CYP2D6; microsomes): > 200 µM
- IC50 (CYP2B6; microsomes): > 200 µM
- IC50 (CYP2C19; microsomes): > 200 µM

Molecule: O=c1c(O[C@@H]2O[C@H](CO)[C@@H](O)[C@H](O)[C@H]2O)c(-c2ccc(O)cc2)oc2cc(O)cc(O)c12 [A7, kaempferol-3-O-glucoside]
- IC50 (CYP2E1 [1]; [11]): 13.6 ± 0.6 µM
- IC50 (CYP1A2; [12]): 153 ± 8.73 µM
- IC50 (CYP2C9; [6]): 80.5 ± 1.05 µM
- IC50 (CYP3A4; [7]): 127 ± 4.24 µM
- IC50 (CYP2D6; [8]): 31 ± 4.17 µM
- IC50 (CYP2B6; [5]): 177 ± 4.21 µM
- IC50 (CYP2C19; [9]): 18.5 ± 1.6 µM

Molecule: C[C@@H]1OC(OC[C@H]2OC(Oc3c(-c4ccc(O)cc4)oc4cc(O)c(OC5O[C@H](CO)[C@@H](O)[C@H](O)[C@H]5O)c(O)c4c3=O)[C@H](O)[C@@H](O)[C@@H]2O)[C@H](O)[C@H](O)[C@H]1O (some centres unmarked) [A12, 6-hydroxykaempferol-3-O-rutinosyl-6-O-glucoside]
- IC50 (CYP2E1 [1]; microsomes): > 200 µM
- IC50 (CYP1A2; microsomes): > 200 µM
- IC50 (CYP2C9; microsomes): > 200 µM
- IC50 (CYP3A4; microsomes): > 200 µM
- IC50 (CYP2D6; microsomes): 98.6 ± 12.3 µM
- IC50 (CYP2B6; microsomes): > 200 µM
- IC50 (CYP2C19; microsomes): > 200 µM

The next lines start with the values.

- IC50 (CYP2E1 [1]; microsomes): > 200 µM
- IC50 (CYP1A2; microsomes): > 200 µM
- IC50 (CYP2C9; microsomes): 39.06 ± 0.09 µM
- IC50 (CYP3A4; microsomes): > 200 µM
- IC50 (CYP2D6; microsomes): > 200 µM
- IC50 (CYP2B6; microsomes): > 200 µM
- IC50 (CYP2C19; microsomes): > 200 µM
Molecule: O=c1c(OC2O[C@H](CO)[C@@H](O)[C@H](O)[C@H]2O)c(-c2ccc(O)cc2)oc2cc(OC3O[C@H](CO)[C@@H](O)[C@H](O)[C@H]3O)c(OC3O[C@H](CO)[C@@H](O)[C@H](O)[C@H]3O)c(O)c12 (some centres unmarked) [A10, 6-hydroxykaempferol-3,6,7-tri-O-glucoside]

- IC50 CYP1A2 (CYP1A2; microsomes): 60.68 ± 2.26 µg/mL
- IC50 CYP2C9 (CYP2C9; microsomes): 9.32 ± 0.56 µg/mL
- IC50 CYP3A4 (CYP3A4; microsomes): 106.27 ± 14.00 µg/mL
- IC50 CYP2D6 (CYP2D6; microsomes): 12.23 ± 4.25 µg/mL
- IC50 CYP2B6 (CYP2B6; microsomes): 43.90 ± 7.91 µg/mL
- IC50 CYP2C19 (CYP2C19; microsomes): 40.85 ± 6.98 µg/mL
Molecule: notoginseng total saponins [NGTS]

- IC50 (CYP1A2; [3]): 21.5 ± 4.5 µM
- IC50 at 15 min (CYP2C9; Sprague-Dawley, rat, pooled rat liver microsomes, pH 7.4, probe tolbutamide (18 µM, in seven-probe cocktail), IC50 CYP2C9, single components, RLM 0.2 mg/mL, 15 min, triplicate, mean ± SD): 14.9 ± 4.24 µM
- IC50 at 15 min (CYP3A4; [10]): 117 ± 6.77 µM
- IC50 at 15 min (CYP2D6; Sprague-Dawley, rat, microsomes, pH 7.4, IC50 CYP2D6): 59.2 ± 1.01 µM
- IC50 at 15 min (CYP2B6; [4]): > 200 µM
- IC50 at 15 min (CYP2C19; Sprague-Dawley, rat, pooled rat liver microsomes, pH 7.4, probe omeprazole (1.07 µM, in seven-probe cocktail), IC50 CYP2C19, single components, RLM 0.2 mg/mL, 15 min, triplicate, mean ± SD): 70.4 ± 1.18 µM
- IC50 (CYP2E1 [2]): 32.5 ± 5.79 µM
Molecule: O=c1c(O)c(-c2ccc(O)cc2)oc2cc(O)cc(O)c12 [A17, kaempferol]

- IC50 (CYP2E1 [1]; microsomes): > 200 µM
- IC50 (CYP1A2; microsomes): 127 ± 6.55 µM
- IC50 (CYP2C9; microsomes): > 200 µM
- IC50 (CYP3A4; microsomes): > 200 µM
- IC50 (CYP2D6; microsomes): > 200 µM
- IC50 (CYP2B6; microsomes): > 200 µM
- IC50 (CYP2C19; microsomes): > 200 µM
Molecule: O=C(O)[C@H]1OC(Oc2cc3oc(-c4ccc(O)cc4)cc(=O)c3c(O)c2OC2O[C@H](CO)[C@@H](O)[C@H](O)[C@H]2O)[C@H](O)[C@@H](O)[C@@H]1O (some centres unmarked) [A15, 6-hydroxyapigenin-6-O-glucosyl-7-O-glucuronide]

- IC50 CYP1A2 (CYP1A2; microsomes): 138.60 ± 14.36 µg/mL
- inhibition on CYP1A2 (in words) (CYP1A2; microsomes): weak inhibition
- IC50 CYP2C9 (CYP2C9; microsomes): 183.30 ± 17.98 µg/mL
- inhibition on CYP2C9 (in words) (CYP2C9; microsomes): weak inhibition
- IC50 CYP3A4 (CYP3A4; microsomes): >200 µg/mL
- IC50 CYP2D6 (CYP2D6; microsomes): 126.17 ± 17.63 µg/mL
- inhibition on CYP2D6 (in words) (CYP2D6; microsomes): weak inhibition
- IC50 CYP2B6 (CYP2B6; microsomes): 58.09 ± 13.41 µg/mL
- inhibition on CYP2B6 (in words) (CYP2B6; microsomes): moderate inhibition
- IC50 CYP2C19 (CYP2C19; microsomes): >200 µg/mL
Molecule: Carthamus tinctorius extract [CTE]
